Counter-ions that a name gives are not always drawn.
molecular target: human α7 nAChRs transiently expressed in Xenopus laevis oocytes (Homo sapiens (Human), UniProt P36544); test: Oocyte electrophysiology screen (TEVC); type: cell-based; settings: 0.01 mM test compound, peak current relative to 0.2 mM ACh
Outline: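 Oocytes expressing human α7 were clamped at −80 mV by TEVC. After a 0.2 mM ACh control pulse, test compound was applied at 0.01 mM for 30 s. Agonist response is peak current as % of the ACh response, in triplicate.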

Chain of human α7 nAChRs transiently expressed in Xenopus laevis oocytes (P36544 23-502 limits assumed): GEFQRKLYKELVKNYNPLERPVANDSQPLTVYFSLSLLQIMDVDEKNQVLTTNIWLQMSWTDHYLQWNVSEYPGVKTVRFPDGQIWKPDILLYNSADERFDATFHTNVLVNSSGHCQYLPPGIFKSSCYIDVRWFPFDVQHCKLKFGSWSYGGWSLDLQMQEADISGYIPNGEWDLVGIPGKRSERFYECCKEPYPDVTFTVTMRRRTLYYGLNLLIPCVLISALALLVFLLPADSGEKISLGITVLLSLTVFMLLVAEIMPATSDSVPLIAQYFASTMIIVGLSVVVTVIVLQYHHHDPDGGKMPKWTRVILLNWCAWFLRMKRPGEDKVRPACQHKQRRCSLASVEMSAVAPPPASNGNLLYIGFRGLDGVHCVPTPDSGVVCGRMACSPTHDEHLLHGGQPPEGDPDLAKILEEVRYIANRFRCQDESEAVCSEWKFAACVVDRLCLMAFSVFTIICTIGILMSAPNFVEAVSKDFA

SMILES | % ACh @ 10 μM Oocyte
CC(C)Oc1ccc2cc(C(=O)N[C@@H]3C4CCN(CC4)C34CC4)sc2c1 [(R)-102, (R)-6-isopropoxy-N-(1′-azaspiro[cyclopropane-1,2′-bicyclo[2.2.2]octan]-3′-yl)benzo[b]thiophene-2-carboxamide hydrochloride] | 1 % ACh
CS(=O)(=O)c1ccc2cc(C(=O)N[C@@H]3C4CCN(CC4)C34CC4)sc2c1 [(R)-103, (R)-6-(methylsulfonyl)-N-(1′-azaspiro[cyclopropane-1,2′-bicyclo[2.2.2]octan]-3′-yl)benzo[b]thiophene-2-carboxamide hydrochloride] | 2 % ACh
N#Cc1ccc2cc(C(=O)N[C@@H]3C4CCN(CC4)C34CC4)sc2c1 [(R)-104, (R)-6-cyano-N-(1′-azaspiro[cyclopropane-1,2′-bicyclo[2.2.2]octan]-3′-yl)benzo[b]thiophene-2-carboxamide hydrochloride] | 20 % ACh
COc1ccc2cc(C(=O)N[C@@H]3C4CCN(CC4)C3(C)C)sc2c1Cl [(R)-112, (R)-7-chloro-N-(2,2-dimethylquinuclidin-3-yl)-6-methoxybenzo[b]thiophene-2-carboxamide hydrochloride] | 234 % ACh
CC1(C)[C@H](NC(=O)c2cc3cccc(C#N)c3s2)C2CCN1CC2 [(R)-115, (R)-7-cyano-N-(2,2-dimethylquinuclidin-3-yl)benzo[b]thiophene-2-carboxamide hydrochloride] | 215 % ACh
Nc1ncc2cc(C(=O)N[C@@H]3C4CCN(CC4)C34CC4)sc2n1 [(R)-149, (R)-2-amino-N-(1′-azaspiro[cyclopropane-1,2′-bicyclo[2.2.2]octan]-3′-yl) thieno[2,3-d]pyrimidine-6-carboxamide hydrochloride] | 195 % ACh
O=C(N[C@@H]1C2CCN(CC2)C12CC2)c1cc2ccc(F)c(C(F)(F)F)c2s1 [(R)-153, (R)-6-fluoro-N-(1′-azaspiro[cyclopropane-1,2′-bicyclo[2.2.2]octan]-3′-yl)-7-(trifluoromethyl)benzo[b]thiophene-2-carboxamide hydrochloride] | 114 % ACh
O=C(N[C@@H]1C2CCN(CC2)C12CC2)c1cc2cccc(Cl)c2o1 [(R)-164, (R)-7-chloro-N-(1′-azaspiro[cyclopropane-1,2′-bicyclo[2.2.2]octan]-3′-yl)benzofuran-2-carboxamide hydrochloride] | 266 % ACh
Cl.Cn1cnc2ccc(C(=O)N[C@@H]3C4CCN(CC4)C3(C)C)cc21 [(R)-206, (R)-N-(2,2-dimethylquinuclidin-3-yl)-1-methyl-1H-benzo[d]imidazole-6-carboxamide hydrochloride] | 0 % ACh
CC1(C)[C@H](NC(=O)c2cc3ccc(-n4ccnn4)cc3s2)C2CCN1CC2.Cl [(R)-208, (R)-N-(2,2-dimethylquinuclidin-3-yl)-6-(1H-1,2,3-triazol-1-yl)benzo[b]thiophene-2-carboxamide hydrochloride] | 0 % ACh
CC1(C)[C@H](NC(=O)c2cc3ccc(F)c(C(F)(F)F)c3s2)C2CCN1CC2.Cl [(R)-211, (R)-N-(2,2-dimethylquinuclidin-3-yl)-6-fluoro-7-(trifluoromethyl)benzo[b]thiophene-2-carboxamide hydrochloride] | 100 % ACh
CC1(C)[C@H](NC(=O)c2cc3ccc(C4CC4)c(F)c3s2)C2CCN1CC2.Cl [(R)-213, (R)-6-cyclopropyl-N-(2,2-dimethylquinuclidin-3-yl)-7-fluorobenzo[b]thiophene-2-carboxamide hydrochloride] | 60 % ACh
CC1(C)[C@H](NC(=O)c2ccc3c(c2)OCCO3)C2CCN1CC2.Cl [(R)-215, (R)-N-(2,2-dimethylquinuclidin-3-yl)-2,3-dihydrobenzo[b][1,4]dioxine-6-carboxamide hydrochloride] | 86 % ACh
CC1(C)[C@H](NC(=O)c2cc3ccc(Cl)cc3o2)C2CCN1CC2.Cl [(R)-216, (R)-6-chloro-N-(2,2-dimethylquinuclidin-3-yl)benzofuran-2-carboxamide hydrochloride] | 184 % ACh
Cl.Cn1c(C(=O)N[C@@H]2C3CCN(CC3)C2(C)C)cc2ccccc21 [(R)-221, (R)-N-(2,2-dimethylquinuclidin-3-yl)-1-methyl-1H-indole-2-carboxamide hydrochloride] | 188 % ACh
Cl.O=C(N[C@@H]1C2CCN(CC2)C12CC2)c1cc2ccc(OC(F)(F)F)cc2s1 [(R)-248, (R)-N-(1′-azaspiro[cyclopropane-1,2′-bicyclo[2.2.2]octan]-3′-yl)-6-(trifluoromethoxy)benzo[b]thiophene-2-carboxamide hydrochloride] | 1 % ACh
Cl.Cn1c(C(=O)N[C@@H]2C3CCN(CC3)C23CC3)cc2ccccc21 [(R)-254, (R)-1-methyl-N-(1′-azaspiro[cyclopropane-1,2′-bicyclo[2.2.2]octan]-3′-yl)-1H-indole-2-carboxamide hydrochloride] | 447 % ACh
CC1(C)[C@@H](NC(=O)c2cc3cccc(Cl)c3s2)C2CCN1CC2 [(S)-3, (S)-7-chloro-N-(2,2-dimethylquinuclidin-3-yl)benzo[b]thiophene-2-carboxamide hydrochloride] | 22 % ACh

SMILES | % ACh @ 10 μM Oocyte
CC1(C)[C@@H](NC(=O)c2cc3cccc(F)c3s2)C2CCN1CC2 [(S)-4, (S)—N-(2,2-dimethylquinuclidin-3-yl)-7-fluoro-benzo[b]thiophene-2-carboxamide hydrochloride] | 17 % ACh
CC1(C)[C@@H](NC(=O)c2ccc3ccsc3c2)C2CCN1CC2 [(S)-5, (S)—N-(2,2-dimethylquinuclidin-3-yl)benzo[b]thiophene-6-carboxamide hydrochloride] | 9 % ACh
CC1(C)[C@@H](NC(=O)c2ccc3occc3c2)C2CCN1CC2 [(S)-6, (S)—N-(2,2-dimethylquinuclidin-3-yl)benzofuran-5-carboxamide hydrochloride] | 2 % ACh
CC1(C)[C@@H](NC(=O)c2cc3cccc(C(F)(F)F)c3s2)C2CCN1CC2 [(S)-7, (S)—N-(2,2-dimethylquinuclidin-3-yl)-7-(trifluoromethyl)benzo[b]thiophene-2-carboxamide hydrochloride] | 2 % ACh
CC1(C)[C@@H](NC(=O)c2cc3ccc(F)cc3s2)C2CCN1CC2 [(S)-8, (S)—N-(2,2-dimethylquinuclidin-3-yl)-6-fluorobenzo[b]thiophene-2-carboxamide hydrochloride] | 1 % ACh
CC1(C)[C@@H](NC(=O)c2cc3ccc(C#N)cc3s2)C2CCN1CC2 [(S)-9, (S)-6-cyano-N-(2,2-dimethylquinuclidin-3-yl)benzo[b]thiophene-2-carboxamide hydrochloride] | 1 % ACh
CC1(C)[C@@H](NC(=O)c2cc3ccc(C(F)(F)F)cc3s2)C2CCN1CC2 [(S)-10, (S)—N-(2,2-dimethylquinuclidin-3-yl)-6-(trifluoromethyl)benzo[b]thiophene-2-carboxamide hydrochloride] | 1 % ACh
CC1(C)[C@@H](NC(=O)c2cc3cc(F)ccc3s2)C2CCN1CC2 [(S)-11, (S)—N-(2,2-dimethylquinuclidin-3-yl)-5-fluorobenzo[b]thiophene-2-carboxamide hydrochloride] | 9 % ACh
CC1(C)[C@@H](NC(=O)c2cc3ccc(Cl)cc3s2)C2CCN1CC2 [(S)-12, (S)-6-chloro-N-(2,2-dimethylquinuclidin-3-yl)benzo[b]thiophene-2-carboxamide hydrochloride] | 3 % ACh
CC1(C)[C@@H](NC(=O)c2cc3cc(Cl)ccc3s2)C2CCN1CC2 [(S)-13, (S)-5-chloro-N-(2,2-dimethylquinuclidin-3-yl)benzo[b]thiophene-2-carboxamide hydrochloride] | 3 % ACh
CC1(C)[C@@H](NC(=O)c2cc3cc(Cl)c(Cl)cc3s2)C2CCN1CC2 [(S)-14, (S)-5,6-dichloro-N-(2,2-dimethylquinuclidin-3-yl)benzo[b]thiophene-2-carboxamide hydrochloride] | 3 % ACh
Cc1ccc2cc(C(=O)N[C@H]3C4CCN(CC4)C3(C)C)sc2c1 [(S)-15, (S)—N-(2,2-dimethylquinuclidin-3-yl)-6-methylbenzo[b]thiophene-2-carboxamide hydrochloride] | 3 % ACh
Cc1ccc2sc(C(=O)N[C@H]3C4CCN(CC4)C3(C)C)cc2c1 [(S)-16, (S)—N-(2,2-dimethylquinuclidin-3-yl)-5-methylbenzo[b]thiophene-2-carboxamide hydrochloride] | 2 % ACh
CC1(C)[C@@H](NC(=O)c2cc3cc(C(F)(F)F)ccc3s2)C2CCN1CC2 [(S)-17, (S)—N-(2,2-dimethylquinuclidin-3-yl)-5-(trifluoromethyl)benzo[b]thiophene-2-carboxamide hydrochloride] | 1 % ACh
CC1(C)[C@@H](NC(=O)c2cc3ccc(C4CC4)cc3s2)C2CCN1CC2 [(S)-18, (S)-6-cyclopropyl-N-(2,2-dimethylquinuclidin-3-yl)benzo[b]thiophene-2-carboxamide hydrochloride] | 1 % ACh
CC1(C)[C@@H](NC(=O)c2cc3cc(C4CC4)ccc3s2)C2CCN1CC2 [(S)-19, (S)-5-cyclopropyl-N-(2,2-dimethylquinuclidin-3-yl)benzo[b]thiophene-2-carboxamide hydrochloride] | 3 % ACh
COc1ccc2cc(C(=O)N[C@H]3C4CCN(CC4)C3(C)C)sc2c1 [(S)-20, (S)—N-(2,2-dimethylquinuclidin-3-yl)-6-methoxybenzo[b]thiophene-2-carboxamide hydrochloride] | 5 % ACh
COc1ccc2sc(C(=O)N[C@H]3C4CCN(CC4)C3(C)C)cc2c1 [(S)-21, (S)—N-(2,2-dimethylquinuclidin-3-yl)-5-methoxybenzo[b]thiophene-2-carboxamide hydrochloride] | 1 % ACh

From patent publication US10183938B2, “Geminal substituted quinuclidine amide compounds as agonists of α-7 nicotonic acetylcholine receptors” (AXOVANT SCIENCES GMBH, priority 2014, dated 2019)
